Assay [1] addresses T1, A2 receptors (Rattus norvegicus, UniProt P30543).
T1 construct: The two hemispheres are separated and the striatum is removed from each of them (Bruns et al., 1986); from tissue; host or cells: rat striatum (membrane homogenate)
Kind of assay: Binding to adenosine A2 receptors: competitive displacement of [^3 H] NECA, rat striatum membranes. As to conditions: [^3 H] NECA 4 nM, n=3; for inhibition at 10 µM: read-out: % displacement of the labeled ligand, A2, 1E-5M; for inhibition at 0.1 µM / % displacement of the labeled ligand, A2, 1E-7M: 10^-7 M; for inhibition at 0.1 µM: read-out: % displacement of the labeled ligand, A2, 1E-7M; for % displacement of the labeled ligand, A2, 1E-7M: 0.1 µM. On the procedure: (§1) The affinity of the products of the Examples for the rat central A1 and A2 adenosinergic receptors is determined by the competitive technique using a radioactive ligand specifically bound either to the A1 receptors ([^3 H] PIA) or to the A2 receptors ([^3 H] NECA).
After decapitation of the animal, the brain is quickly removed and washed in cold isotonic solution. The two hemispheres are separated and the striatum is removed from each of them (Bruns et al., 1986), weighed and introduced into a polyallomer tube containing 10 volumes of cold homogenization buffer. The tissue is homogenized with an Ultra-Turrax for 30 seconds (3 times 10 seconds with 10-second intervals, 70% of the maximum speed). The ground material is centrifuged at 50,000 g (≈20,500 rpm) for 10 minutes at 4° C.
The residue obtained is resuspended in 10 volumes of homogenization buffer using a Vortex and homogenized with the Ultra-Turrax (5 to 10 seconds, 70% of the maximum speed).
Adenosine deaminase is then added at a rate of 1 U/ml, i.e. 1 μl/ml of homogenate, using a 10 μl Hamilton syringe. The homogenate treated in this way is shaken at room temperature for 30 minutes.
When the incubation is complete, the homogenate is centrifuged at 50,000 g (≈20,500 rpm) for 10 minutes at 4° C.
The residue is taken up with 5 volumes of cold homogenization buffer and passed through the Ultra-Turrax (2 times 10 seconds with a 10-second interval, 70% of the maximum speed) and the homogenate prepared in this way is finally frozen at -70° C.
After the homogenate has been thawed at room temperature, 15 volumes of incubation buffer are added. The homogenate is shaken on a Vortex, passed through a Potter homogenizer (6 to-and-fro movements, speed 6), diluted to 1/10 in incubation buffer and finally placed in a water bath thermostated at 4° C., with shaking, until the end of the experiment.
50 μl of [^3 H] NECA at 160 nM, i.e. 4 nM in the final reaction medium allowing for the 1/40 dilution, and 50 μl of the product of the Example at the concentrations considered (10^-5 M and 10^-7 M) are introduced into the reaction tubes. The reaction is initiated by the addition of 1 ml of homogenate and 900 μl of incubation buffer. The procedure is similar for all the compounds studied.
The tubes are shaken and incubated in a water bath at 25° C. for 60 minutes. When the incubation is complete, the contents of the tubes are filtered on Whatman GF/B paper. Each tube is washed twice with 2 ml of rinsing buffer and then the filters themselves are rinsed with 3 ml of this same buffer before being transferred to counting flasks.
10 ml of liquid scintillator (Ready Solv HP/b, Beckman) are added to all the flasks. These are shaken and stored in a refrigerator overnight. The radioactivity is determined in a liquid scintillation counter.
3 tests are performed for each concentration studied. The non-specific binding of the [^3 H] NECA is determined by measuring the amount of radioactivity retained on the filter in the presence of 5 μM N-ethylcarboxamidoadenosine (NECA). The value of the non-specific binding is systematically subtracted from that of the tests.
(§2) The results are expressed for each product in the form of the percentage displacement (n=3) of the labeled radioligand at concentrations of 10^-5 M and 10^-7 M.

The subject of assay [2] is twisting and stretching movements in mice. The assay can be described thus: Phenylbenzoquinone test (analgesic activity). The assay is classed as in vivo. As to conditions: one hour before phenylbenzoquinone i.p., 5 minutes observation; for ED50: Mus musculus, po, read-out: Phenylbenzoquinone test 50% inhibitory dose; for Phenylbenzoquinone test 50% inhibitory dose: p.o. On the procedure:
The intraperitoneal injection of phenylbenzoquinone causes twisting and stretching movements in mice. Analgesics prevent or reduce this syndrome, which can be considered as the exteriorization of diffuse abdominal pain.
A 0.02% solution of phenylbenzoquinone in water is administered in a volume of 1 ml/100 g.
The products of the Examples are administered orally one hour before the injection of phenylbenzoquinone.
The stretching and twisting movements are counted for each mouse over an observation period of 5 minutes.

For assay [3], the target named is T2, A1 receptors (Rattus norvegicus, UniProt P25099).
T2 construct: the brain is quickly removed and washed in cold isotonic solution; from tissue; host or cells: rat brain hemispheres (membrane homogenate)
T2 sequence (P25099 1-326): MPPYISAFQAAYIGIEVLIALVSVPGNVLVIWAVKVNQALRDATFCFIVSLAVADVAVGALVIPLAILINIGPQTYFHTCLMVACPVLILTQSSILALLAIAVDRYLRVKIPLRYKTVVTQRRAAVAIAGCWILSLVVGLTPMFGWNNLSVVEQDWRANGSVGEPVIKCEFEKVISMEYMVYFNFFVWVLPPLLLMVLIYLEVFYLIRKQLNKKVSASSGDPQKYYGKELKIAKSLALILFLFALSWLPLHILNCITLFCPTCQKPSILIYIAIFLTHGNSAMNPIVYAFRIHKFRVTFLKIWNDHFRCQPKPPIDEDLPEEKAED
Kind of assay: Binding to adenosine A1 receptors: competitive displacement of [^3 H] PIA, rat brain membranes. The conditions noted are these: [^3 H] PIA 2.5 nM, n=3; for inhibition at 10 µM: 10^-5 M, read-out: % displacement of the labeled ligand, A1, 1E-5M; for inhibition at 0.1 µM / % displacement of the labeled ligand, A1, 1E-7M: 10^-7 M; for inhibition at 0.1 µM: read-out: % displacement of the labeled ligand, A1, 1E-7M; for % displacement of the labeled ligand, A1, 1E-7M: 0.1 µM. The procedure: as §1
After the animal has been sacrificed by decapitation, the brain is quickly removed and washed in cold isotonic solution. The two hemispheres are separated and weighed and each of them is introduced into a polyallomer tube containing 25 volumes of cold homogenization buffer. Homogenization is effected using an Ultra-Turrax for 30 seconds (3 times 10 seconds with 10-second intervals, 70% of the maximum speed). The ground material obtained is centrifuged at 1000 g (≈3000 rpm) for 10 minutes at 4° C.
The supernatant is centrifuged again at 48,000 g (≈20,000 rpm) for 20 minutes at 4° C.
When this step is complete, the residue is taken up with 4 volumes of homogenization buffer, resuspended using a Vortex and homogenized with the Ultra-Turrax. Adenosine deaminase is then added at a rate of 1 U/ml, i.e. 1 μl/ml of homogenate, using a 10 μl Hamilton syringe.
After this treatment, the homogenate is shaken for 30 minutes at room temperature and then centrifuged at […] (≈20,000 rpm) for 30 minutes at 4° C.
The residue obtained is resuspended in 10 volumes of homogenization buffer and passed through the Ultra-Turrax for 20 seconds (2 times 10 seconds with a 10-second interval, 70% of the maximum speed).
The homogenate prepared in this way is used for the competitive tests. It is kept at 4° C. if the studies take place the same day, or stored at -20° C. in the form of 10 ml aliquots.
After the homogenate has been thawed at room temperature, it is passed through a Potter homogenizer (6 manual to-and-fro movements, speed 6), diluted to 2/5 in incubation buffer and placed in a water bath thermostated at 4° C., with shaking, until the end of the experiment.
50 μl of [^3 H] PIA at 100 nM, i.e. 2.5 nM in the final reaction medium allowing for the 1/40 dilution, and 50 μl of the product of the Example at the concentrations considered (10^-5 M and 10^-7 M) are introduced into the reaction tubes. The reaction is initiated by the addition of 1 ml of homogenate and 900 μl of incubation buffer. The procedure is identical for all the […] studied.
The tubes are shaken and incubated in a water bath at 20° C. for 30 minutes. When the incubation is complete, the contents of the tubes are filtered on Whatman GF/B paper. Each tube is washed twice with 2 ml of rinsing buffer and then the filters themselves are rinsed with 3 ml of this same buffer.
The filters are then transferred to counting flasks and 10 ml of liquid scintillator (Ready Solv HP/b, Beckman) are added.
After they have been shaken, the flasks are stored in a refrigerator overnight and the radioactivity is then determined in a liquid scintillation counter.
3 tests are performed for each concentration studied. The non-specific binding of the [^3 H] PIA is assessed by measuring the amount of radioactivity retained on the filter in the presence of 10^-5 M phenylisopropyladenosine (PIA). The value of the non-specific binding is systematically subtracted from that of the tests.
as §2

This is an account of results in US5219839A, “Adenosine derivatives, their methods of preparation and pharmaceutical compositions in which they are present” (Laboratories UPSA, priority 1992, dated 1993).

Each structure is given as a SMILES string.

T1 sequence (P30543 whole entry): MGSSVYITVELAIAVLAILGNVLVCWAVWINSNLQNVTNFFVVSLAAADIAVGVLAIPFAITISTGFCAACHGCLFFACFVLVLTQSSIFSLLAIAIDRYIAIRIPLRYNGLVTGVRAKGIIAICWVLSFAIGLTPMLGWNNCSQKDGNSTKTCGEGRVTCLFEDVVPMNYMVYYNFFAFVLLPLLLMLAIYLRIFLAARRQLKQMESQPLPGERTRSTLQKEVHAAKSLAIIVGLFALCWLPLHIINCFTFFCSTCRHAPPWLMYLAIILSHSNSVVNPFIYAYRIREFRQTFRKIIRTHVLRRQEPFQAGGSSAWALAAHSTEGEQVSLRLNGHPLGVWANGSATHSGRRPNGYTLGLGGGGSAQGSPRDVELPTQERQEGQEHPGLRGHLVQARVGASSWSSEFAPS

As for `O=C(NC1CC1)[C@H]1O[C@@H](n2cnc3c(NCC4CC4(c4ccccc4)c4ccccc4)ncnc32)[C@H](O)[C@@H]1O` (mixture of isomers) [Example 42, β-D-Ribofuranuronamido-N-cyclopropyl-1-deoxy-1-[6-[(±)-[[2,2-diphenylcyclopropyl]methyl]amino]-9H-purin-9-yl]], the results for the inhibition at 10 µM in assay [1] (10^-5 M) and in assay [3] were 94% and 96%, respectively. Further, the figures for the inhibition at 0.1 µM in assay [1] and in assay [3] were 59% and 20%, respectively. Further, the ED50 in assay [2] is 0.9 mg/kg.
Take `O=C(NC1CC1)[C@H]1O[C@@H](n2cnc3c(NCC4CC4(c4ccccc4)c4ccccc4)ncnc32)[C@H](O)[C@@H]1O` (single isomer, unassigned) [Example 44, β-D-Ribofuranuronamido-N-cyclopropyl-1-deoxy-1-[6-[(-)-[[2,2-diphenylcyclopropyl]methyl]amino]-9H-purin-9-yl]]: the “% displacement of the labeled ligand, A2, 1E-5M” value in assay [1] (10^-5 M, 10 µM) is on record as 100%. Also, in assay [1], the “% displacement of the labeled ligand, A2, 1E-7M” value (“% displacement … A2, 1E-7M” below) came out at 19%. Further, the “Phenylbenzoquinone test 50% inhibitory dose” value in assay [2] is “≈ 1 mg/kg”. For the same compound, in assay [3], the inhibition at 10 µM amounted to 90% and the “% displacement of the labeled ligand, A1, 1E-7M” value (“% displacement … A1, 1E-7M” below) was 10%.
Turning to `O=C(NC1CC1)[C@H]1O[C@@H](n2cnc3c(NCC4CC45c4ccccc4-c4ccccc45)ncnc32)[C@H](O)[C@@H]1O` (mixture of isomers) [Example 46, β-D-Ribofuranuronamido-N-cyclopropyl-1-deoxy-1-[6-[(±)-2-[spiro[cyclopropane-1,9'-[9H]-fluorene]methyl]amino]-9H-purin-9-yl]], in assay [1] (10^-5 M), the inhibition at 10 µM was 92%. Also, the inhibition at 0.1 µM in assay [1] was 38%. In addition, the ED50 in assay [2] came out at 0.6 mg/kg.
As for `OC[C@H]1O[C@@H](n2cnc3c(NCC4CC4(c4ccccc4)c4cc(Cl)cc(Cl)c4)ncnc32)[C@H](O)[C@@H]1O` (mixture of isomers) [Example 52, N^6-(±)-[1-(3,5-Dichlorophenyl)-1-phenylcyclopropan-2-yl]methyladenosine], the inhibition at 10 µM in assay [1] (10^-5 M) and in assay [3] was 92% in each case. In addition, the results for the inhibition at 0.1 µM in assay [1] and in assay [3] were 28% and 18%, respectively. Moreover, in assay [2], the ED50 came to 41 mg/kg.
On to `O=C(NC1CC1)[C@H]1O[C@@H](n2cnc3c(NCC4CC4(c4ccccc4)c4ccccc4)ncnc32)[C@H](O)[C@@H]1O` (single isomer, unassigned) [Example 43, β-D-Ribofuranuronamido-N-cyclopropyl-1-deoxy-1-[6-[(+)-[[2,2-diphenylcyclopropyl]methyl]amino]-9H-purin-9-yl]], for which the inhibition at 10 µM in assay [1] (10^-5 M) came out at 96%. Moreover, the “% displacement … A2, 1E-7M” value in assay [1] is 73%. Further, the ED50 in assay [2] came to 1.2 mg/kg. Moreover, in assay [3], the inhibition at 10 µM amounted to 97% and the “% displacement … A1, 1E-7M” value amounted to 44%.
`CC(C)NC(=O)[C@H]1O[C@@H](n2cnc3c(NCC4CC4(c4ccccc4)c4ccccc4)ncnc32)[C@H](O)[C@@H]1O` (mixture of isomers) [Example 47, β-D-Ribofuranuronamido-N-isopropyl-1-deoxy-1-[6-[(±)-[[2,2-diphenylcyclopropyl]methyl]amino]-9H-purin-9-yl]]: the inhibition at 10 µM in assay [1] (10^-5 M) worked out at 84%; in assay [3], 93%. Also, the inhibition at 0.1 µM was found to be 17% in assay [1] and 7% in assay [3]. The ED50 in assay [2] was determined as 2 mg/kg.
Regarding `CCNC(=O)[C@H]1O[C@@H](n2cnc3c(NCC4CC4(c4ccccc4)c4ccccc4)ncnc32)[C@H](O)[C@@H]1O` (single isomer, unassigned) [Example 48, β-D-Ribofuranuronamido-N-ethyl-1-deoxy-1-[6-[(+)-[[2,2-diphenylcyclopropyl]methyl]amino]-9H-purin-9-yl]], the inhibition at 10 µM in assay [1] (10^-5 M) was 92%. For the same compound, the “% displacement … A2, 1E-7M” value in assay [1] was determined as 71%. Moreover, in assay [2], the “Phenylbenzoquinone test 50% inhibitory dose” value came out at 0.3 mg/kg. For the same compound, in assay [3], the inhibition at 10 µM was determined as 99% and the “% displacement … A1, 1E-7M” value worked out at 54%.
